Experimental data from US20060122198A1, “Antiepileptic agent” (Kyowa Hakko Kogyo Co., Ltd., priority 2003, published 2006).

What was measured:
[1] = tested on: convulsion induced by administration of reserpine and electric stimulation; test: Antiepileptic action: tonic extended convulsion induced by reserpine and electric stimulation; type: in vivo; conditions: male ddY mice treated with reserpine 5 mg/kg i.p.; test compound 30 mg/kg orally; electric stimulation 1,000 V, 50 mA, 0.2 second after one hour; compared with reserpine + solvent group, p<0.01 (Aspine-Welch test)
Experimental: Convulsion induced by administration of reserpine and electric stimulation has been known as an effective model for epilepsy [European Journal of Pharmacology, 1994, volume 23, page 260]. Male mice (body weight: 15 to 17 g; Nippon SLC, Hamamatsu) of ddY strain of four weeks age were subjected to a preliminary breeding and 65 mice where body weight became 22.4 to 26.0 g were used for the experiment. Fifteen mice among the above were used as a non-treated group. Reserpine (Apoplon Injection 1 mg; Daiichi Seiyaku) diluted with distilled water for injection (Otsuka Seiyaku, Naruto) was intraperitoneally administered (treatment with reserpine) at the dose of 5 mg/kg to each of the remaining 50 mice and the experiment was carried out after 18 to 24 hours from the administration. Among the mice subjected to the treatment with reserpine, two groups each comprising ten mice were randomly selected and used as a group administered with a solvent and a group administered with the test compound. The test compound was used as a suspension of a 0.5% MC solution [distilled water for injection containing 0.5% methyl cellulose 400 cP (Wako Pure Chemicals)] and Compound (I) was orally administered at the dose of 30 mg/kg (10 mL/kg in terms of volume) to the mice treated with reserpine (a group administered with the test compound). […]

male mice of dd-strain = conditions: mouse, in vivo, po, 7 days
Experimental: A test compound was orally administered to male mice (body weight: 20±1 g) of dd-strain which comprises three mice per group. State of death after 7 days from the administration was observed and the minimum lethal dose (MLD) was determined.

SMILES	duration of convulsion (tonic extended convulsion) [1]	minimum lethal dose (MLD) (male mice of dd-strain)
COc1cc(/C=C/c2nc3c(c(=O)n(C)c(=O)n3C)n2C)cc(OC)c1OC [Compound 1, (E)-8-(3,4,5-Trimethoxystyryl)caffeine]	significant shortening action	> 1,000 mg/kg
CCCn1c(=O)c2c(nc(/C=C/c3ccc(OC)c(OC)c3)n2C)n(CCC)c1=O [Compound 3, (E)-8-(3,4-Dimethoxystyryl)-7-methyl-1,3-dipropylxanthine]	significant shortening action	
